The NIST ThermoML archive (doi:10.1016/j.jct.2012.04.020)
“And” between values parts separate entries of the source, which are not always exact repeats. Identical values can stand only once.

Assay: mn = molality of the nth substance listed, in mol/kg
Details: 101 kPa, Liquid; for speed of sound: Sing-around technique in a fixed-path interferometer; for mass density: Vibrating tube method

NCC(=O)O [2-aminoacetic acid] + O
Details	mass density, m1 = 0.04978 [kg/m3]	mass density, m1 = 0.1472 [kg/m3]	mass density, m1 = 0.2507 [kg/m3]	mass density, m1 = 0.3018 [kg/m3]	mass density, m1 = 0.3521 [kg/m3]	speed of sound, m1 = 0.04978 [m/s]	speed of sound, m1 = 0.1472 [m/s]	speed of sound, m1 = 0.2507 [m/s]	speed of sound, m1 = 0.3018 [m/s]	speed of sound, m1 = 0.3521 [m/s]
288.15 K	1000.74	1003.87	1007.09	1008.62	1010.01	1484.9	1490.1	1495.3	1497.7	1500
298.15 K	998.674	1001.73	1004.79	1006.26	1007.54	1499	1503.6	1508.3	1510.3	1512.3
308.15 K	995.639	998.704	1001.69	1003	1004.15	1521.8	1526	1530.5	1532.4	1534.3
318.15 K	991.801	994.854	997.838	999.157	1000.43	1538.6	1542.8	1547	1549.3	1550.9

C[C@H](N)C(=O)O [(S)-2-aminopropanoic acid] + O
mass density [kg/m3]
Details	m1 = 0.05014	m1 = 0.15	m1 = 0.2505	m1 = 0.303	m1 = 0.3456
288.15 K	1000.65	1003.65	1006.52	1007.97	1009.14
298.15 K	998.59	1001.56	1004.42	1005.85	1006.98
308.15 K	995.554	998.483	1001.31	1002.74	1003.86
318.15 K	991.648	994.399	997.067	998.365	999.359

O=P([O-])([O-])O.[K+].[K+] [dipotassium hydrogen phosphate] + O
Details	mass density, 288.15 K	mass density, 298.15 K	mass density, 308.15 K	mass density, 318.15 K	speed of sound, 288.15 K	speed of sound, 298.15 K	speed of sound, 308.15 K	speed of sound, 318.15 K
m1 = 0.2	1031.93 kg/m3 and 1029.08 kg/m3	1029.32 kg/m3 and 1026.51 kg/m3	1025.9 kg/m3 and 1023.13 kg/m3	1021.79 kg/m3 and 1018.99 kg/m3	1502.7 m/s and 1500 m/s	1530.6 m/s and 1528.2 m/s	1551.8 m/s and 1549.3 m/s	1566.8 m/s and 1564.2 m/s
m1 = 0.4	1057.5 kg/m3 and 1061.39 kg/m3	1054.52 kg/m3 and 1058.35 kg/m3	1054.54 kg/m3 and 1050.82 kg/m3	1050.25 kg/m3 and 1046.5 kg/m3	1531 m/s and 1535 m/s	1557 m/s and 1560.8 m/s	1580.1 m/s and 1576.5 m/s	1593.7 m/s and 1590.2 m/s
m1 = 0.6	1084.12 kg/m3 and 1093.21 kg/m3	1080.78 kg/m3 and 1089.76 kg/m3	1076.82 kg/m3 and 1085.71 kg/m3	1072.29 kg/m3 and 1081.11 kg/m3	1560.3 m/s and 1570.8 m/s	1584.4 m/s and 1594.5 m/s	1602.3 m/s and 1611.8 m/s	1614.7 m/s and 1623.6 m/s
m1 = 0.8	1113.94 kg/m3 and 1116.48 kg/m3	1110.27 kg/m3 and 1112.77 kg/m3	1106.04 kg/m3 and 1108.53 kg/m3	1101.38 kg/m3 and 1103.81 kg/m3	1594.2 m/s and 1597.3 m/s	1616.3 m/s and 1619.1 m/s	1632.4 m/s and 1635 m/s	1643.2 m/s and 1645.5 m/s
